Results reported in BindingDB's records for doi:10.1016/j.bioorg.2015.02.002 (Bezmialem Vakif University, 2015).

Key:
Acetylcholinesterase = Acetylcholinesterase (Electrophorus electricus, UniProt O42275); assay: Anticholinesterase Activity Assays; settings: pH 8
Procedure: (§1) The substrates of the reaction were acetylthiocholine iodide and butyrylthiocholine iodide. 5,5'-dithio-bis(2-nitrobenzoic) acid (DTNB) was used for the measurement of the anticholinesterase activity. The solutions of the samples and galantamine in n-propanol were prepared at concentration of 4000 µg/mL. […] 10 µL of DTNB solution was prepared by adding 2.0 mL of pH 7.0 and 4.0 mL of pH 8.0 phosphate buffers to a mixture of 1.0 mL of 16 mg/mL DTNB and 7.5 mg/mL NaHCO3 in pH 7.0 phosphate buffers. The reaction was initiated by the addition of 10 µL (7.1 mM) acetylthiocholine iodide (or 0.79 mM butyrylthiocholine iodide). Propyl alcohol was used as a solvent to controls. The hydrolysis of these substrates was monitored at 412 nm.

[1] = molecular target: Carboxylic ester hydrolase (Equus caballus, UniProt Q9N1N9); assay: Anticholinesterase Activity Assays; settings: pH 8
Procedure: as §1

Sequence of Acetylcholinesterase (O42275 whole entry): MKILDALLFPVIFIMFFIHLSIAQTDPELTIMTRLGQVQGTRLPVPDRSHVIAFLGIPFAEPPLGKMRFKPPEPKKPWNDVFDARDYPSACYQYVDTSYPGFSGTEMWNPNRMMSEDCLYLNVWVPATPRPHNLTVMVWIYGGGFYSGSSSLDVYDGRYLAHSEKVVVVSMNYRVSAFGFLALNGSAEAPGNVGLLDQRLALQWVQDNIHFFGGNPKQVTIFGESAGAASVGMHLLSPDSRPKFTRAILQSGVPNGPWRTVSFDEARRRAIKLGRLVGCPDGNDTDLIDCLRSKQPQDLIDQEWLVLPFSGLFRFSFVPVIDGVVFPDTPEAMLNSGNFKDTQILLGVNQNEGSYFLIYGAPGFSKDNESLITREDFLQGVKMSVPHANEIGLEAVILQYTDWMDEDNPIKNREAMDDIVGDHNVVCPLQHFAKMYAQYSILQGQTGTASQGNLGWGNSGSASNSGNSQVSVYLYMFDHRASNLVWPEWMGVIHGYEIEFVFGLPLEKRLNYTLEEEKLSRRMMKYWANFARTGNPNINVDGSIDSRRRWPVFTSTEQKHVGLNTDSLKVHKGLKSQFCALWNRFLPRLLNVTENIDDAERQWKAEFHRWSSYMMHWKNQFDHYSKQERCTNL
Sequence of Carboxylic ester hydrolase (Q9N1N9 whole entry): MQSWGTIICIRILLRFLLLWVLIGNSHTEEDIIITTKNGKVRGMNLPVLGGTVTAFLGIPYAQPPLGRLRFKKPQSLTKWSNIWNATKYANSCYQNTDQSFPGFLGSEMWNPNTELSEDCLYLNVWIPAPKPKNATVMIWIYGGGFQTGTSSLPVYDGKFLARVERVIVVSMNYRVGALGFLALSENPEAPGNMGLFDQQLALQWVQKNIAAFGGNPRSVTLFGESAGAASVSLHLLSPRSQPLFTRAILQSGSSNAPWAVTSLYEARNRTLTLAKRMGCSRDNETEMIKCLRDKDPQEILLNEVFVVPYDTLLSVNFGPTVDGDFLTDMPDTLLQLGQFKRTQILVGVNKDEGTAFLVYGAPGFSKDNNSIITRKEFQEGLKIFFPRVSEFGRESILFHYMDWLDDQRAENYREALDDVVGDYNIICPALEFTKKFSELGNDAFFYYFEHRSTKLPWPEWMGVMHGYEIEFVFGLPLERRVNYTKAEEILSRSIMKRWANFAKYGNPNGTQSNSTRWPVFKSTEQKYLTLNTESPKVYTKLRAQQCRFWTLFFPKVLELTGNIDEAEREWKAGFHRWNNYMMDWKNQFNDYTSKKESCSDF

Cc1ccc(NC(=O)Nc2nc(-c3cc4ccccc4oc3=O)cs2)cc1 [1-(p-tolyl)-3-(4-(2-oxo-2H-chromen-3-yl)thiazol-2-yl)urea (e4)]
IC50 (Acetylcholinesterase): 81.5 µM
IC50 [1]: 54.8 µM

O=C(Nc1ccccc1)Nc1nc(-c2cc3ccccc3oc2=O)cs1 [1-Phenyl-3-(4-(2-oxo-2H-chromen-3-yl)thiazol-2-yl)urea (e5)]
IC50 (Acetylcholinesterase): 73.2 µM
IC50 [1]: 74.6 µM
